T/C data for 18 molecules are collected here from PubChem BioAssay AID248 (DTP/NCI, 2004).

Structures are written as SMILES. Where “and” joins values, the source holds several entries; their conditions need not be identical. Equal entries are not always repeated. Inconclusive results and toxic doses are left out.

In this assay the test system is L1210 leukemia ip in BDF1 mice, survival T/C. Nature of the assay: NCI In Vivo Anticancer Drug Screen. Data for tumor model L1210 Leukemia (intraperitoneal) in B6D2F1 (BDF1) mice. Conditions: endpoint: mean survival time, higher = longer survival. In a few lines: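 Each compound was tested against a transplantable tumor grown in mice. The endpoint was survival, with treated animals benchmarked against vehicle controls as a simple ratio.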

The mark [1] stands for this setting: dose: 100.0 mg/kg/injection, schedule: Q01DX001 (ip), vehicle: other.
The mark [2] stands for this setting: dose: 200.0 mg/kg/injection, schedule: Q01DX001 (ip), vehicle: other.
Where [3] appears, read: dose: 400.0 mg/kg/injection, schedule: Q01DX001 (ip), vehicle: other.
Where [4] appears, read: dose: 100.0 mg/kg/injection, schedule: Q04DX002 (ip), vehicle: Klucel (hydroxypropylcellulose) (HPC).
[5] abbreviates: dose: 200.0 mg/kg/injection, schedule: Q04DX002 (ip), vehicle: Klucel (hydroxypropylcellulose) (HPC).
[6] abbreviates: dose: 400.0 mg/kg/injection, schedule: Q04DX002 (ip), vehicle: Klucel (hydroxypropylcellulose) (HPC).
The mark [7] stands for this setting: dose: 100.0 mg/kg/injection, schedule: Q01DX009 (ip), vehicle: Klucel (hydroxypropylcellulose) (HPC).
The mark [8] stands for this setting: dose: 100.0 mg/kg/injection, schedule: Q04DX003 (ip), vehicle: Klucel (hydroxypropylcellulose) (HPC).
Where [9] appears, read: dose: 200.0 mg/kg/injection, schedule: Q01DX009 (ip), vehicle: Klucel (hydroxypropylcellulose) (HPC).
Where [10] appears, read: dose: 200.0 mg/kg/injection, schedule: Q04DX003 (ip), vehicle: Klucel (hydroxypropylcellulose) (HPC).
Where [11] appears, read: dose: 100.0 mg/kg/injection, schedule: Q01DX001 (ip), vehicle: saline.
Setting [12] is: dose: 200.0 mg/kg/injection, schedule: Q01DX001 (ip), vehicle: saline.
Where [13] appears, read: dose: 400.0 mg/kg/injection, schedule: Q01DX001 (ip), vehicle: saline.
Setting [14] is: dose: 100.0 mg/kg/injection, schedule: Q01DX001 (ip), vehicle: carboxymethylcellulose (CMC).
Setting [15] is: dose: 200.0 mg/kg/injection, schedule: Q01DX001 (ip), vehicle: carboxymethylcellulose (CMC).
Where [16] appears, read: dose: 400.0 mg/kg/injection, schedule: Q01DX001 (ip), vehicle: carboxymethylcellulose (CMC).
Where [17] appears, read: dose: 400.0 mg/kg/injection, schedule: Q01DX009 (ip), vehicle: Klucel (hydroxypropylcellulose) (HPC).
Setting [18] is: dose: 400.0 mg/kg/injection, schedule: Q04DX003 (ip), vehicle: Klucel (hydroxypropylcellulose) (HPC).

Turning to `O=C(Nc1cccc(Cl)c1)c1cc([N+](=O)[O-])ccc1O`, the T/C by setting is: (dose: 5.0 mg/kg/injection, schedule: Q01DX001 (ip), vehicle: other) 104 % of control; (dose: 10.0 mg/kg/injection, schedule: Q01DX001 (ip), vehicle: other) 104 % of control; (dose: 10.0 mg/kg/injection, schedule: Q02DX010 (ip), vehicle: carboxymethylcellulose (CMC)) 105 % of control; (dose: 20.0 mg/kg/injection, schedule: Q01DX001 (ip), vehicle: other) 104 % of control; (dose: 20.0 mg/kg/injection, schedule: Q02DX010 (ip), vehicle: carboxymethylcellulose (CMC)) 109 % of control; (dose: 40.0 mg/kg/injection, schedule: Q01DX001 (ip), vehicle: other) 101 % of control. The T/C reads like this: (dose: 40.0 mg/kg/injection, schedule: Q02DX010 (ip), vehicle: carboxymethylcellulose (CMC)) 95 % of control; (dose: 80.0 mg/kg/injection, schedule: Q01DX001 (ip), vehicle: other) 95 % of control; (dose: 80.0 mg/kg/injection, schedule: Q02DX010 (ip), vehicle: carboxymethylcellulose (CMC)) 88 % of control; under setting [1], 86 % of control; under setting [2], 97 % of control; under setting [3], 114 % of control.
Consider `O=C1CCCCCCCCCCCCCCCO1`, for which the T/C is 90 % of control under setting [4], 93 % of control under setting [5] and 93 % of control under setting [6].
`CCCCCCOC(N)=O`: the T/C runs as follows: (dose: 50.0 mg/kg/injection, schedule: Q01DX009 (ip), vehicle: Klucel (hydroxypropylcellulose) (HPC)) 96 % of control; under setting [7], 96 % of control; under setting [8], 96 % of control; under setting [9], 96 % of control; under setting [10], 96 % of control.
For the molecule `C=CCC1(CCCCC)C(=O)NC(=S)NC1=O`, the T/C reads like this: (dose: 75.0 mg/kg/injection, schedule: Q01DX001 (ip), vehicle: saline) 100 % of control; (dose: 150.0 mg/kg/injection, schedule: Q01DX001 (ip), vehicle: saline) 100 % of control.
As to `O=C(CSCc1ccc([N+](=O)[O-])cc1)c1ccc(Br)cc1`, the T/C is, setting by setting: under setting [11], 92 % of control; under setting [12], 95 % of control; under setting [13], 92 % of control.
For the molecule `COc1cc(C=Nc2cc(Br)c(O)c(Br)c2)ccc1N(CCCl)CCCl`, the T/C is, setting by setting: (dose: 6.4 mg/kg/injection, schedule: Q01DX009 (ip), vehicle: carboxymethylcellulose (CMC)) 101 % of control; (dose: 9.8 mg/kg/injection, schedule: Q01DX001 (ip), vehicle: carboxymethylcellulose (CMC)) 104 % of control; (dose: 14.6 mg/kg/injection, schedule: Q01DX009 (ip), vehicle: carboxymethylcellulose (CMC)) 103 % of control and 111 % of control; (dose: 22.0 mg/kg/injection, schedule: Q01DX001 (ip), vehicle: carboxymethylcellulose (CMC)) 177 % of control; (dose: 22.0 mg/kg/injection, schedule: Q01DX009 (ip), vehicle: carboxymethylcellulose (CMC)) 94 % of control; (dose: 25.0 mg/kg/injection, schedule: Q01DX001 (ip), vehicle: carboxymethylcellulose (CMC)) 153 % of control. The T/C (dose: 50.0 mg/kg/injection, schedule: Q01DX001 (ip), vehicle: carboxymethylcellulose (CMC)) is 161 % of control.
For `CCCC[Si](C)(C)C`, the T/C is 103 % of control under setting [14], 95 % of control under setting [15] and 103 % of control under setting [16].
On to `Cc1cc(N(CCCl)CCCl)ccc1C=Nc1cccnc1`, for which the T/C by setting is: (dose: 50.0 mg/kg/injection, schedule: Q01DX001 (ip), vehicle: other) 100 % of control; under setting [1], 100 % of control; under setting [2], 92 % of control; under setting [3], 94 % of control.
`CCCCCC[CH2][Sn]([CH2]CCCCCC)([CH2]CCCCCC)[CH2]CCCCCC`: the T/C under setting [7] was 103 % of control, the T/C under setting [9] was 101 % of control and the T/C under setting [17] was 101 % of control.
In the case of `CCCCCC(C)O[Si](C)Oc1ccccc1` (centres undefined), the T/C was 100 % of control (dose: 100.0 mg/kg/injection, schedule: Q04DX003 (ip), vehicle: saline with Tween-80); 100 % of control (dose: 200.0 mg/kg/injection, schedule: Q04DX003 (ip), vehicle: saline with Tween-80); 91 % of control (dose: 400.0 mg/kg/injection, schedule: Q04DX003 (ip), vehicle: saline with Tween-80).
For the molecule `CCCCCCCCCCCCSCCSCCCCCCCCCCCC`, the T/C under setting [14] is 93 % of control, the T/C under setting [15] was 86 % of control and the T/C under setting [16] was 102 % of control.
For `O=C(O)c1ccc(F)c([N+](=O)[O-])c1`, the T/C was 102 % of control (dose: 100.0 mg/kg/injection, schedule: Q04DX002 (ip), vehicle: saline); 113 % of control (dose: 200.0 mg/kg/injection, schedule: Q04DX002 (ip), vehicle: saline); 107 % of control (dose: 400.0 mg/kg/injection, schedule: Q04DX002 (ip), vehicle: saline).
Consider `C[S+](C)CCCNC(=O)c1csc(CCNC(=O)c2ccccc2)n1`, for which the T/C was 100 % of control (dose: 12.5 mg/kg/injection, schedule: Q01DX009 (ip), vehicle: saline with Tween-80); 103 % of control (dose: 12.5 mg/kg/injection, schedule: Q04DX003 (ip), vehicle: saline with Tween-80); 97 % of control (dose: 25.0 mg/kg/injection, schedule: Q01DX009 (ip), vehicle: saline with Tween-80); 101 % of control (dose: 25.0 mg/kg/injection, schedule: Q04DX003 (ip), vehicle: saline with Tween-80); 101 % of control (dose: 50.0 mg/kg/injection, schedule: Q01DX009 (ip), vehicle: saline with Tween-80); 97 % of control (dose: 50.0 mg/kg/injection, schedule: Q04DX003 (ip), vehicle: saline with Tween-80).
Regarding `COc1ccc(OC)c(NC(=O)Nc2ccccc2C(N)=O)c1`, the T/C under setting [8] is 97 % of control, the T/C under setting [10] was 95 % of control and the T/C under setting [18] is 93 % of control.
As to `COc1nc(OC)c(OP(=O)(OC)OC)c(OC)n1`, the T/C is 95 % of control (dose: 50.0 mg/kg/injection, schedule: Q01DX001 (ip), vehicle: saline); 98 % of control under setting [11]; 89 % of control under setting [12]; 95 % of control under setting [13].
As to `COc1ccccc1OCCOCCN(C)C1CC(C)CCC1C(C)C` (centres undefined), the T/C under setting [8] was 98 % of control.
Consider `COc1ccc(NC(=O)/C=C/C(=O)O)cc1`, for which the T/C reads like this: under setting [4], 103 % of control; under setting [5], 95 % of control; under setting [6], 120 % of control.
With `O=C(NCCCl)Oc1cccc2c1CCCC2`, the T/C runs as follows: under setting [7], 87 % of control; under setting [8], 103 % of control; under setting [9], 97 % of control; under setting [10], 100 % of control; under setting [17], 100 % of control; under setting [18], 100 % of control.
